Results published in US8067424B2, “Selective inhibitors for cyclin-dependent kinases” (Emory University, priority 2007, dated 2011).
Like-named read-outs stand apart in the source and are kept apart here.

Experiments:
NEK7 = NEK7 (Homo sapiens, UniProt Q8TDX7); assay: Kinase screen: NEK7 assay; assay type: biochemical; conditions: read-out: Mean Remaining Enzyme Activity (%)
Experimental: Generally, the same procedure was used for all assays. Since the total assay volume was 25.5 microliters, 0.5 microliters of inhibitors at 51× assay concentration were added to the plates before any other addition.
The basic procedure was to add 0.5 microliters inhibitor/control in DMSO to plate. Fifteen microliters of enzyme/substrate/buffer mix were added and incubated for 5 min. Ten microliters MgATP at the relevant concentration were added and incubated for 30 min. The assay was stopped by adding 5 microliters of 3% orthophosphoric acid. The assay was transferred to a p81 filter plate and read in a scintillation counter of 30 sec/well. Note that this assay procedure was not followed for MKK1, which instead involved a two-step assay, and PKC alpha, which required the addition of lipid vesicles.
(500-1000 cpm/pmole) and incubated for 30 min at room temperature. Assays were stopped by addition of 5 μl of 0.5 M (3%) orthophosphoric acid and then harvested onto P81 Unifilter plates with a wash buffer of 50 mM orthophosphoric acid.

HOP-62 = assay: cells; conditions: Homo sapiens
T-47D = assay: cells; conditions: Homo sapiens, T47D
SR = conditions: for Mean Optical Densities / Percent Growth: SR
[1] = K-562, log10 concentration −4.0
[2] = K-562, log10 concentration −5.0
[3] = K-562, log10 concentration −6.0
[4] = K-562, log10 concentration −7.0
[5] = K-562, log10 concentration −8.0
[6] = DU-145, log10 concentration −4.0
[7] = DU-145, log10 concentration −5.0
[8] = DU-145, log10 concentration −6.0
[9] = DU-145, log10 concentration −7.0
[10] = DU-145, log10 concentration −8.0
[11] = 786-0, log10 concentration −4.0
[12] = 786-0, log10 concentration −5.0
[13] = 786-0, log10 concentration −6.0
[14] = 786-0, log10 concentration −7.0
[15] = 786-0, log10 concentration −8.0
[16] = NCI-H23, log10 concentration −4.0
[17] = NCI-H23, log10 concentration −5.0
[18] = NCI-H23, log10 concentration −6.0
[19] = NCI-H23, log10 concentration −7.0
[20] = NCI-H23, log10 concentration −8.0
[21] = UO-31, log10 concentration −4.0
[22] = UO-31, log10 concentration −5.0
[23] = UO-31, log10 concentration −6.0
[24] = UO-31, log10 concentration −7.0
[25] = UO-31, log10 concentration −8.0
[26] = SNB-75, log10 concentration −4.0
[27] = SNB-75, log10 concentration −5.0
[28] = SNB-75, log10 concentration −6.0
[29] = SNB-75, log10 concentration −7.0
[30] = SNB-75, log10 concentration −8.0
[31] = SF-539, log10 concentration −4.0
[32] = SF-539, log10 concentration −5.0
[33] = SF-539, log10 concentration −6.0
[34] = SF-539, log10 concentration −7.0
[35] = SF-539, log10 concentration −8.0
[36] = COLO 205, log10 concentration −4.0
[37] = COLO 205, log10 concentration −5.0
[38] = COLO 205, log10 concentration −6.0
[39] = COLO 205, log10 concentration −7.0
[40] = COLO 205, log10 concentration −8.0

NEK7, sequence (Q8TDX7 whole entry, species assumed): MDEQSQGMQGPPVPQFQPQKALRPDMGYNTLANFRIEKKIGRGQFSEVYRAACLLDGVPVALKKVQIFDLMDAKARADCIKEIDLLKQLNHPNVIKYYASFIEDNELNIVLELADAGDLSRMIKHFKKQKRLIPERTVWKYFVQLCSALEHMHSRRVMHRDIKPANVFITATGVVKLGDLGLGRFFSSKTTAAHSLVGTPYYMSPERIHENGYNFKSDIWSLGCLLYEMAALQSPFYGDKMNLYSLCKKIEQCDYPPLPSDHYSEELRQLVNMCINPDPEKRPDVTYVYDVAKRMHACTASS

CC(C)c1cnn2c(NCc3ccccc3)cc(NCCCCCCCN)nc12 [BS-181]
remaining activity at 10 µM (NEK7): 97%

CC(C)c1cnn2c(NCc3ccccc3)cc(N[C@@H](CO)[C@H](O)CO)nc12 [ICEC0318, (3S)-3-(7-(Benzylamino)-3-isopropylpyrazolo[1,5-a]pyrimidin-5-ylamino)butane-1,2,4-triol]
TGI (K-562; K-562 (Leukemia)): >1.00E−4
Mean Optical Densities (K-562; [1]): 0.341
Percent Growth (K-562; [1]): 17%
Mean Optical Densities (K-562; [2]): 0.325
Percent Growth (K-562; [2]): 15%
Mean Optical Densities (K-562; [3]): 0.334
Percent Growth (K-562; [3]): 16%
Mean Optical Densities (K-562; [4]): 0.991
Percent Growth (K-562; [4]): 79%
Mean Optical Densities (K-562; [5]): 1.064
Percent Growth (K-562; [5]): 86%
TGI (DU-145; DU-145 (Prostate Cancer)): >1.00E−4
Mean Optical Densities (DU-145; [6]): 0.204
Percent Growth (DU-145; [6]): 3%
Mean Optical Densities (DU-145; [7]): 0.250
Percent Growth (DU-145; [7]): 12%
Mean Optical Densities (DU-145; [8]): 0.277
Percent Growth (DU-145; [8]): 17%
Mean Optical Densities (DU-145; [9]): 0.688
Percent Growth (DU-145; [9]): 95%
Mean Optical Densities (DU-145; [10]): 0.732
Percent Growth (DU-145; [10]): 103%
TGI (786-0; 786-0 (Renal Cancer)): 8.99E−7
Mean Optical Densities (786-0; [11]): 0.491
Percent Growth (786-0; [11]): −21%
Mean Optical Densities (786-0; [12]): 0.598
Percent Growth (786-0; [12]): −4%
Mean Optical Densities (786-0; [13]): 0.592
Percent Growth (786-0; [13]): −5%
Mean Optical Densities (786-0; [14]): 1.769
Percent Growth (786-0; [14]): 98%
Mean Optical Densities (786-0; [15]): 1.824
Percent Growth (786-0; [15]): 103%
GI50 (786-0; Homo sapiens, 786-0): 293 nM
CC50 (786-0; Homo sapiens, 786-0, read-out: LC50): > 100000 nM
GI50 (HOP-62; HOP-62): 243 nM
CC50 (HOP-62; HOP-62, read-out: LC50): > 100000 nM
GI50 (T-47D): 305 nM
CC50 (T-47D; read-out: LC50): > 100000 nM
TGI (NCI-H23; NCI-H23 (Non-Small Cell Lung Cancer)): >1.00E−4
Mean Optical Densities (NCI-H23; [16]): 0.562
Percent Growth (NCI-H23; [16]): 1%
Mean Optical Densities (NCI-H23; [17]): 0.563
Percent Growth (NCI-H23; [17]): 1%
Mean Optical Densities (NCI-H23; [18]): 0.633
Percent Growth (NCI-H23; [18]): 6%
Mean Optical Densities (NCI-H23; [19]): 1.639
Percent Growth (NCI-H23; [19]): 81%
Mean Optical Densities (NCI-H23; [20]): 1.802
Percent Growth (NCI-H23; [20]): 93%
TGI (UO-31; UO-31 (Renal Cancer)): 2.07E−5
Mean Optical Densities (UO-31; [21]): 0.522
Percent Growth (UO-31; [21]): −4%
Mean Optical Densities (UO-31; [22]): 0.557
Percent Growth (UO-31; [22]): 2%
Mean Optical Densities (UO-31; [23]): 0.578
Percent Growth (UO-31; [23]): 4%
Mean Optical Densities (UO-31; [24]): 1.371
Percent Growth (UO-31; [24]): 89%
Mean Optical Densities (UO-31; [25]): 1.378
Percent Growth (UO-31; [25]): 90%
TGI (SNB-75; SNB-75 (CNS Cancer)): 4.82E−7
Mean Optical Densities (SNB-75; [26]): 0.072
Percent Growth (SNB-75; [26]): −83%
Mean Optical Densities (SNB-75; [27]): 0.162
Percent Growth (SNB-75; [27]): −62%
Mean Optical Densities (SNB-75; [28]): 0.226
Percent Growth (SNB-75; [28]): −47%
Mean Optical Densities (SNB-75; [29]): 0.911
Percent Growth (SNB-75; [29]): 101%
Mean Optical Densities (SNB-75; [30]): 0.848
Percent Growth (SNB-75; [30]): 88%
TGI (HT29; HT29 (Colon Cancer)): 3.66E−5
Mean Optical Densities (HT29; HT29, log10 concentration −4.0): 0.190
Percent Growth (HT29; HT29, log10 concentration −4.0): −2%
Mean Optical Densities (HT29; HT29, log10 concentration −5.0): 0.216
Percent Growth (HT29; HT29, log10 concentration −5.0): 2%
Mean Optical Densities (HT29; HT29, log10 concentration −6.0): 0.247
Percent Growth (HT29; HT29, log10 concentration −6.0): 5%
Mean Optical Densities (HT29; HT29, log10 concentration −7.0): 1.345
Percent Growth (HT29; HT29, log10 concentration −7.0): 100%
Mean Optical Densities (HT29; HT29, log10 concentration −8.0): 1.394
Percent Growth (HT29; HT29, log10 concentration −8.0): 105%
TGI (SF-539; SF-539 (CNS Cancer)): 5.81E−7
Mean Optical Densities (SF-539; [31]): 0.138
Percent Growth (SF-539; [31]): −81%
Mean Optical Densities (SF-539; [32]): 0.327
Percent Growth (SF-539; [32]): −55%
Mean Optical Densities (SF-539; [33]): 0.540
Percent Growth (SF-539; [33]): −25%
Mean Optical Densities (SF-539; [34]): 1.950
Percent Growth (SF-539; [34]): 82%
Mean Optical Densities (SF-539; [35]): 2.183
Percent Growth (SF-539; [35]): 98%
TGI (COLO 205; COLO 205 (Colon Cancer)): 3.82E−7
Mean Optical Densities (COLO 205; [36]): 0.030
Percent Growth (COLO 205; [36]): −77%
Mean Optical Densities (COLO 205; [37]): 0.050
Percent Growth (COLO 205; [37]): −62%
Mean Optical Densities (COLO 205; [38]): 0.065
Percent Growth (COLO 205; [38]): −50%
Mean Optical Densities (COLO 205; [39]): 0.372
Percent Growth (COLO 205; [39]): 70%
Mean Optical Densities (COLO 205; [40]): 0.499
Percent Growth (COLO 205; [40]): 107%
TGI (SR; SR (Leukemia)): >1.00E−4
Mean Optical Densities (SR; log10 concentration −4.0): 0.239
Percent Growth (SR; log10 concentration −4.0): 7%
Mean Optical Densities (SR; log10 concentration −5.0): 0.244
Percent Growth (SR; log10 concentration −5.0): 8%
Mean Optical Densities (SR; log10 concentration −6.0): 0.275
Percent Growth (SR; log10 concentration −6.0): 16%
Mean Optical Densities (SR; log10 concentration −7.0): 0.394
Percent Growth (SR; log10 concentration −7.0): 45%
Mean Optical Densities (SR; log10 concentration −8.0): 0.548
Percent Growth (SR; log10 concentration −8.0): 83%
